From a melting point compilation (Tetko et al.; mined from patent text by program, amines drawn as free bases though some values may be those of a salt)

First: COCCc1cccc2oc(C(=O)O)c(C)c12
Second: O=C(O)CCC(=O)c1ccc2c(c1)oc1ccccc12
The melting point of the first is lower: 138 to 140 °C for the first, 208 to 210 °C for the second.

First: O=[N+]([O-])c1ccc(O)c(-c2ccsc2)c1
Second: CC(=O)Nc1nc(-c2ccc([N+](=O)[O-])cc2)c[nH]1
The melting point of the first is lower: 130 °C for the first, 242 to 244 °C for the second.

`CCCCOc1cc(CNCCN(CC)CC)cc(S(N)(=O)=O)c1Cc1ccccc1` and `Cn1nc(N)nc1NCCCOc1cccc(CNCc2ccccc2)c1` cannot be ordered by melting point: 89 to 93 °C for the first, 90 to 91 °C for the second.

Compared with `CC(=O)OC1CCC2(C)C(CCC3C4CCC(C(C)CC(=O)C(=O)N5CCOCC5)C4(C)CC(=O)C32)C1` (centres undefined), `CC12CCCC=C1CCC1C2CCC2(C)C(OC3CCCCO3)CCC12` (centres undefined) is lower in melting point: 122 to 123 °C for the first, 92 to 96 °C for the second.

First: Nc1ccc(CCC(=O)c2ccccc2)cc1
Second: CC(=O)Nc1ccc(S(=O)(=O)Nc2ccccc2)cc1
The melting point of the first is lower: 76 to 78 °C for the first, 209 to 210 °C for the second.

Compared with `O=CNc1ccccc1N1CCc2cc(Cl)ccc21`, `Cc1cccc(C2=CCN(c3ccc(Cl)nn3)CC2)c1` is lower in melting point: 126 to 129 °C for the first, 122 °C for the second.

`COc1cc(OC)nc(NC(=O)NS(=O)(=O)c2cccc3cccnc23)n1` and `COc1cc(OC)nc(NC(=O)NS(=O)(=O)c2ccccc2-c2cnoc2)n1` cannot be ordered by melting point: 175 to 177 °C for the first, 175 to 178 °C for the second.

Compared with `CC(Cc1ccc(F)cc1)(NC(=O)CN)c1ccc(F)cc1` (centres undefined), `CC(C)(NS(=O)(=O)c1ccc(Oc2ccc(F)cc2)cc1)C(=O)NO` is higher in melting point: 130 to 131 °C for the first, 133 to 134 °C for the second.

First: Cc1ccc2c(c1)NC(=O)CO2
Second: Nc1cc2c(cc1Br)C(=O)OC2
The melting point of the first is lower: 204 to 205 °C for the first, 235 to 241 °C for the second.

First: COc1ccc(Nc2nc(Cl)nc(OCC3CCCCC3)n2)cc1F
Second: CN(CC(=O)O)[C@H]1CC[C@H](Nc2ncc3ncnc(Nc4ccc(F)c(Cl)c4)c3n2)CC1
The melting point of the first is lower: 98 °C for the first, 220 to 228 °C for the second.

First: CNC(=S)NS(=O)(=O)c1cc2c(cc1OC)OC(C)(C)C(NC(=O)c1cc(F)ccc1OC)C2 (centres undefined)
Second: CCC1=NN=C(c2ccc(OC)c(OC)c2)c2cc(OC)c(OC)cc2C1CC (centres undefined)
The melting point of the first is higher: 222 °C for the first, 142 to 144 °C for the second.

First: Nc1c2c(nc3ccccc13)CCC=C2
Second: CCn1cc2c(n1)c(N)nc1ccccc12
The melting point of the first is lower: 178 to 179 °C for the first, 240 to 241 °C for the second.

Compared with `Cc1nnc(-c2ccc3ncn(-c4ccc(OC(F)F)cc4)c3c2)o1`, `CN(CCOc1cn(-c2ccc(F)cc2)c2cc(Cl)ccc12)CCN1CCNC1=O` is lower in melting point: 154 to 155 °C for the first, 100 to 102 °C for the second.

Compared with `COC(=O)C(c1ccccc1)c1cn[nH]c1` (racemic), `C[C@@H](O)[C@H](NC(=O)Cc1ccccc1)C(=O)O` is higher in melting point: 100 to 103 °C for the first, 118 to 120 °C for the second.

First: CNC(=O)c1ccc(OCC(O)CNC(C)COc2ccc(O)c(C(N)=O)c2)cc1 (centres undefined)
Second: COc1ccc(C(=O)Nc2ccc(Cl)cc2)cc1N
The melting point of the first is lower: 172 to 175 °C for the first, 191 to 192 °C for the second.

First: COc1cccc(NC(=O)NC2N=C(c3ccccc3)c3ccccc3N(C)C2=O)c1 (centres undefined)
Second: COc1ccc(C(NCCNC(c2ccccc2)c2ccc(OC)cc2)c2ccccc2)cc1 (centres undefined)
The melting point of the first is higher: 216 to 219 °C for the first, 97 to 98 °C for the second.

First: CC(=O)c1c(C)[nH]c(CC(C)(C)C)c1C
Second: CC(=O)c1nc(C)c[nH]1
The melting point of the first is higher: 156 to 163 °C for the first, 113 to 115 °C for the second.

Compared with `Oc1ccc(CC2CO2)cc1` (racemic), `O=C1NC(=O)C(Cc2ccc(OCCNc3ncccn3)cc2)S1` (centres undefined) is higher in melting point: 54 to 57 °C for the first, 173 °C for the second.

First: Cc1ccc(NC(=O)N2CC(Oc3cccc(C(F)(F)F)c3)C2)cc1
Second: O=S(=O)(Nc1cccc(CCOCc2csc(-c3ccccc3Cl)n2)c1)C(F)(F)F
The melting point of the first is higher: 191 to 192 °C for the first, 86 to 87 °C for the second.

First: COc1cc2c(cc1-c1nocc1-c1ccccc1C#N)C(C)(C)CCC2(C)C
Second: CC(C)(C)c1nc(-c2ncn3c2COC(=O)c2ccccc2-3)no1
The melting point of the first is lower: 202 to 203 °C for the first, 210 to 211 °C for the second.

First: C=Cc1c(C)c(NC(=O)CC(C)(C)C)c(C)c2c1OCC2c1ccc(C(C)C)cc1 (centres undefined)
Second: CCOC(=O)c1cc2cc(C=CC(=O)c3ccc(C)cc3)cc(C(C)CC)c2oc1=O (centres undefined)
The melting point of the first is higher: 171 to 172 °C for the first, 155 to 156 °C for the second.

First: O=[N+]([O-])c1cn2c(n1)O[C@@H](CN1CCN(Cc3ccc(-c4ccccc4)cc3)CC1)C2
Second: O=C1Oc2ccccc2CN1C1CCN(Cc2ccccc2)CC1
The melting point of the first is higher: 207 to 208 °C for the first, 106 to 107 °C for the second.

First: CN1CCC(c2ccc(-c3ccccc3)cc2)(C(C)(C)O)CC1
Second: O=c1[nH]c2ccccc2n2cnc(-c3ccc(F)cc3)c12
The melting point of the first is lower: 192 to 193 °C for the first, greater than 300 °C for the second.

First: COc1ccc(SC2SC(=O)NC2=O)cc1 (centres undefined)
Second: COc1ccc(C(=O)O)c(C(=O)O)c1
The melting point of the first is lower: 89 to 91 °C for the first, 168 to 174 °C for the second.

First: CN(C)CCCCNc1nc2cc(Cl)c(Cl)cc2nc1-c1ccccn1
Second: COc1ccc(CNc2cc(Cl)c(N=CN(C)C)c(Cl)c2)cc1F
The melting point of the first is lower: 81 to 83 °C for the first, 138 to 140 °C for the second.

First: CC(C)c1nc(-c2ncn3c2C(C)(C)N(C(=O)N2CCCC2)c2cc(F)ccc2-3)no1
Second: CC(C)n1cc(-c2nc(C(N)=O)c(N)nc2-c2cccc(F)c2)ccc1=O
The melting point of the first is lower: 154 to 156 °C for the first, 259 °C for the second.

First: CCCc1ccc2nc(Cl)c(S(=O)(=O)Cl)n2n1
Second: Cc1c(Cl)nc(=O)n(C)c1N
The melting point of the first is lower: 94.2 to 95.5 °C for the first, 254 to 256 °C for the second.

First: CCCCCCCCCCCCCCC[C@@H](O)[C@@H](NCc1ccccc1)C(=O)O
Second: CCCCCCCCCCCCCCCCCCOCC(COP(=O)([O-])OCC[N+](C)(C)C)Oc1ccon1 (racemic)
The melting point of the first is higher: 132 °C for the first, 115 to 125 °C for the second.

First: CCCCc1ccc(CCCCC(NC(C)=O)(C(=O)OCC)C(=O)OCC)cc1
Second: CCOC(=O)CC[C@H](NC(=O)c1cc(CCCc2cc3c(=O)[nH]c(N)nc3[nH]2)cs1)C(=O)OCC
The melting point of the first is lower: 60 to 61 °C for the first, 81 to 82 °C for the second.

First: Cn1c(C(F)(F)F)cc(=O)n(-c2ccc3snc(C(=O)NS(N)(=O)=O)c3c2)c1=O
Second: N#CC1(Nc2ccc(Cl)c(Cl)c2)CCN(C(=O)c2cc(C(F)(F)F)cc(C(F)(F)F)c2)CC1
The melting point of the first is higher: 221 °C for the first, 195 to 197 °C for the second.

First: CCOC(=O)c1ccc(C(=O)O)s1
Second: CCOC(=O)C1=C(C)NC(C)=C(C(=O)OCC)C1c1csc2ccc([N+](=O)[O-])cc12
The melting point of the first is higher: greater than 300 °C for the first, 255 to 259 °C for the second.

Compared with `CCC(NC(=O)C(F)F)c1ccc(Cl)c2nc3n(c12)CCCN3c1ccc(Cl)cc1Cl` (centres undefined), `CCO[C@@H]1C[C@@H](C(=O)NC)N(S(=O)(=O)c2ccc(Cl)c(COc3cccc4c(-n5ccnc5)cc(C)nc34)c2Cl)C1` is lower in melting point: 248 to 250 °C for the first, 80 °C for the second.

First: O=C(O)Cc1ccc2c(c1)CCC(C(F)(F)F)N2 (centres undefined)
Second: CC(C)(C)c1ccc([N+](=O)[O-])c(C(=O)O)c1
The melting point of the first is lower: 107 to 108 °C for the first, 137 to 139 °C for the second.

First: COc1cc(OCc2ccccn2)ccc1/C=C/c1cc(/C=C/c2ccc(OCc3ccccn3)cc2OC)[nH]n1
Second: Cc1cc(OCCc2nc(-c3ccccc3)oc2C)ccc1OC(C)(C)C(=O)O
The melting point of the first is higher: 195 to 197 °C for the first, 117 °C for the second.

First: C=CCCc1sc(C#N)c2c1C(=O)CC(C)(C)C2
Second: CCC(=O)c1cc(C#N)c(=O)[nH]c1CC
The melting point of the first is lower: 43 to 46 °C for the first, 243 to 245 °C for the second.

First: O=C(Nc1cccc2ccccc12)N(CCCN1CCC(Cc2ccccc2)CC1)c1ccccc1
Second: O=c1[nH]c2ccccc2n1CCN1CCc2c([nH]c3ccccc23)C1
The melting point of the first is lower: 124 to 127 °C for the first, 214 to 216 °C for the second.

Compared with `CCCCCCCCOc1cc2cc(C(=O)OC)c(C(=O)OC)c(-c3ccncc3)c2cc1OC`, `CCCCCCCCOc1ccc(-c2ncc(Br)cn2)c(F)c1` is lower in melting point: 124 to 126 °C for the first, 7.16 °C for the second.

Compared with `CC1(C)CN(c2ncc(C(=O)O)c(N)n2)C(=O)N1`, `CC1(C)Oc2c(N)ccc(Cl)c2C1=O` is lower in melting point: 290 to 291 °C for the first, 71 to 73 °C for the second.

Compared with `c1cc(Oc2cnccn2)c2cc[nH]c2c1`, `Nc1ncc(-c2cccc(Cl)c2Cl)nc1C(=O)Nc1cccnc1` is higher in melting point: 192 to 193 °C for the first, 239 to 241 °C for the second.

Compared with `COc1ccc(C#N)cc1/C=C/C(=O)O`, `COc1ccc(/C=C(\C#N)c2ccc(N)cc2)cc1OC1CCCC1` is lower in melting point: 252 to 253 °C for the first, 82 to 84 °C for the second.

First: CCCC(O)c1cc(-c2ccc(F)cc2)oc1C (centres undefined)
Second: Cc1ccc(-c2nc(C(N)=O)cs2)cc1
The melting point of the first is lower: 96 to 97 °C for the first, 100 to 102 °C for the second.

Compared with `Cc1ccc(Sc2nc(C(N)=O)nc3c(C)csc23)cc1`, `CCc1nc2c(N)nc(C)c(C)c2n1CCOCCNC(=O)NC(=O)c1ccccc1` is lower in melting point: 243 to 246 °C for the first, 185 to 187 °C for the second.

Compared with `O=C(CCC#Cc1ccccn1)Nc1cccc(F)c1`, `O=C1CCCc2c1ccc(OCc1ccccc1)c2CBr` is lower in melting point: 110 to 114 °C for the first, 103 to 104 °C for the second.

Compared with `COCc1cc2c(C(=O)Nc3c(C)noc3C)ccc(OC)c2o1`, `CCOC(=O)c1c(C(=O)Nc2ccc(Cl)cc2C)cccc1[N+](=O)[O-]` is lower in melting point: 168 to 170 °C for the first, 164 to 165 °C for the second.

First: CC(C)S(=O)(=O)c1snc(OC[Si](C)(C)C)c1C#N
Second: CC(C)COC(=O)c1ccc(N)cc1N
The melting point of the first is higher: 98 to 99 °C for the first, 54 to 55 °C for the second.

First: C#CCOc1cc(-c2nc3n(c2Cl)CCCC3)c(F)cc1Cl
Second: CC(=O)Nc1ncc2cc(-c3c(Cl)cccc3Cl)c(NC(C)=O)nc2n1
The melting point of the first is lower: 142 to 145 °C for the first, 223 to 225 °C for the second.

Compared with `Cc1ccc(-c2ccc(S(C)(=O)=O)c(F)c2)n1-c1ccc(-c2ccoc2)cc1`, `Cc1ncn(-c2cc(F)ccc2C#N)n1` is lower in melting point: 147 to 150 °C for the first, 117 to 118 °C for the second.

First: CC1(C)C2CCC(C2)C1CCC(O)CCC1C2CCC(C2)C1(C)C (centres undefined)
Second: Cc1cc(SC2=C(O)CC(C3CCCC3)(C3CCCC3)OC2=O)c(C(C)(C)C)cc1OCCO
The melting point of the first is lower: 55 to 56 °C for the first, 90 to 92 °C for the second.

Compared with `CC(C)(C)NCC(O)c1cc(F)cc(C#N)c1F` (centres undefined), `Cc1cc(Cc2cc(C)c(N=C=O)c(C)c2)cc(C)c1N=C=O` is higher in melting point: 99 to 101 °C for the first, 130 to 131 °C for the second.

First: C=C1C(=O)N(CC(=O)O)C(=O)N1Cc1cccc([N+](=O)[O-])c1
Second: COC(=O)[C@H]1CC[C@H](c2[nH]nc3c2C(=O)c2c(NC(=O)NN4CCOCC4)cccc2-3)CC1
The melting point of the first is lower: 169 to 171 °C for the first, 259 to 261 °C for the second.

First: O=C(O)c1cn([C@@H]2C[C@@H]2F)c2c(Cl)c(N3CC4=C(CNC4)C3)c(F)cc2c1=O
Second: CN(C)C(=O)CCC(=O)NC1CCC(CCN2CCN(c3nccc4c3CCO4)CC2)CC1 (centres undefined)
The melting point of the first is higher: 221 to 223 °C for the first, 188 °C for the second.

First: Clc1ncnc(Cl)c1I
Second: Clc1ccc2c(n1)[nH]c1ccc(Br)cc12
The melting point of the first is lower: 135 to 136 °C for the first, greater than 220 °C for the second.
